4 molecules from paper PMC9410882, “Identification of a novel deFADding activity in human, yeast and bacterial 5′ to 3′ exoribonucleases” (Nucleic Acids Research, 2022) can be followed below.

The target of data set [1] is T1, Xrn1 (Kl Xrn1) (Kluyveromyces lactis, UniProt Q6CJ09).
T1 construct: gene KLLA0_F22385g; recombinant, Ni-NTA purified
Description: inhibition of decay of […]-labelled capped RNA, gel. The format is biochemical. The conditions noted are these: FAD-capped or NAD-capped RNA as substrate.

Data set [2] concerns the target T2, RNase AM (yciV) (Escherichia coli, UniProt P77766).
T2 construct: gene rnm; full-length, His-tagged, expressed in E. coli BL21 (DE3) Rosetta with 2,2'-bipyridyl and MnSO4; Ni-NTA and gel filtration
T2 sequence (P77766 1-293): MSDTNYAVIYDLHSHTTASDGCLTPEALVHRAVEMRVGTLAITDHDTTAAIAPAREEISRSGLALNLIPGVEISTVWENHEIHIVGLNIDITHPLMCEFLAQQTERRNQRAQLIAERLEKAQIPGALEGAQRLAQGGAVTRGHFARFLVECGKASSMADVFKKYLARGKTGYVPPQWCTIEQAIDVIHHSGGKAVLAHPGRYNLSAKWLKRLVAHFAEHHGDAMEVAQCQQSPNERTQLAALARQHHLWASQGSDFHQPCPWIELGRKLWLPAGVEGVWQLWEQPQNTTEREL
In words: thermal shift assay. To be noted: Mn2+-loaded enzyme; data not shown. The format is binding.

Data set [3] has as its target T3, Kl Xrn1 (Kluyveromyces lactis, UniProt Q6CJ09 1-1245).
T3 sequence: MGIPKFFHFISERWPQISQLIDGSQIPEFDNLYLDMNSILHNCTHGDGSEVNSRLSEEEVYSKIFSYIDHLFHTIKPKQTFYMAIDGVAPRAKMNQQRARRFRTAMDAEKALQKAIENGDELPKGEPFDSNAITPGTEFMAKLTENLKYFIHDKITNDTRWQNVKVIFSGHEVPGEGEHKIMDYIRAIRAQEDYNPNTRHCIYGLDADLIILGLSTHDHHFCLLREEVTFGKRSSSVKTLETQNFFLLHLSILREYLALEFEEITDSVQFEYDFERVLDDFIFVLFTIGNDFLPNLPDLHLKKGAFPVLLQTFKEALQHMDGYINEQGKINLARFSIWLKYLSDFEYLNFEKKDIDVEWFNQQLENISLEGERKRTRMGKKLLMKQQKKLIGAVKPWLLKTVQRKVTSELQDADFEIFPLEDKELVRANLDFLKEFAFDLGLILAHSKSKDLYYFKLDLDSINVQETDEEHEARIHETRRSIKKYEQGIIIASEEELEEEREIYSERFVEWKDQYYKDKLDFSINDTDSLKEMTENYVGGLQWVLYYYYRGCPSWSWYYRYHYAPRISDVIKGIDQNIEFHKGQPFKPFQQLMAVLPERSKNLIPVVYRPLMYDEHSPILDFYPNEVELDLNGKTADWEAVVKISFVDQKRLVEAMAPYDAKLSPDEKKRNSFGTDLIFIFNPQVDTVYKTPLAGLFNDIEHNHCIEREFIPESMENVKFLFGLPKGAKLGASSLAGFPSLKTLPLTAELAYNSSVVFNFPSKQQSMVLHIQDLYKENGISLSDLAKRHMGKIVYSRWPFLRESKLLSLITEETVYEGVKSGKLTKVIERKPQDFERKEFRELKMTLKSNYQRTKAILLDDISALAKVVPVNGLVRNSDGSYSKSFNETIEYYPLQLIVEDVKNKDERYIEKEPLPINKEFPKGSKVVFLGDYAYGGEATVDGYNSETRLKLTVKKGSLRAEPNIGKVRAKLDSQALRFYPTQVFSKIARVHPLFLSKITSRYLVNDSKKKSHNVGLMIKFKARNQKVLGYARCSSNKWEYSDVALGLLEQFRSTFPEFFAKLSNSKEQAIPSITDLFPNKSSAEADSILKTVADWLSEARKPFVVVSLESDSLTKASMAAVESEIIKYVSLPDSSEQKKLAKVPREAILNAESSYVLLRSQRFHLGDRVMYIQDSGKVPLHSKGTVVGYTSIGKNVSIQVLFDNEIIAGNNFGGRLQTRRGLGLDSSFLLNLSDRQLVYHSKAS
Description: EMSA; stable complex, minimally competed by total yeast RNA; EMSA: 10 mM Tris-HCl pH 7.5, 150 mM KCl, 1.5 mM MgCl2, 0.5 mM DTT, on ice 30 min, 5 pmol RNA with 2.5-7.5 pmol Xrn1, 6% gel in 0.5x TBE; FcRAP: 1x lysis buffer, 4 C, 90 min. To be noted: protein: recombinant; tags: C-terminal 6xHis; label: 32P uniform; single strand. For orientation: In EMSA bound probe runs differently from free probe, usually more slowly.

For the molecule `Cc1cc2nc3c(=O)[nH]c(=O)nc-3n(C[C@H](O)[C@H](O)[C@H](O)COP(=O)(O)OP(=O)(O)OC[C@H]3O[C@@H](n4cnc5c(N)ncnc54)[C@H](O)[C@@H]3O)c2cc1C` [FAD], the inhibition result in data set [1] (free FAD) was “inhibition was nevertheless detected when using higher concentration of FAD”. Also, the thermal shift entry in data set [2] was “competent for binding FAD (as determined by thermal shift assay; data not shown)”.

Take `Cc1cc2nc3c(=O)[nH]c(=O)nc-3n(C[C@H](O)[C@H](O)[C@H](O)COP(=O)(O)OP(=O)(O)OC[C@H]3O[C@@H](n4cnc5c(N)ncnc54)[C@H](O)[C@@H]3OP(=O)(O)O)c2cc1C` [FAD3′P]: the inhibition result in data set [1] was “the effect was more pronounced with the FAD-capped RNA mimic, FAD3′P”.

With AGUUGGUGGUUGUUGUGUGUUUGUGGUUGGUUUGUUUGGC (ssRNA, 5' FAD cap) [FAD-capped RNA (FAD-40)], the binding result in data set [3] was “binds”.

Regarding AGUUGGUGGUUGUUGUGUGUUUGUGGUUGGUUUGUUUGGC (ssRNA, 5' NAD cap) [NAD-capped RNA (NAD-40)], the binding result in data set [3] is listed as “binds”.
